In patent US9475841B2, “Melanoma antigen peptide and uses thereof” (INSERM (INSTITUT NATIONAL DE LA SANTE ET DE LA RECHERCHE …, priority 2012, dated 2016):

Legend:
Assay in all cases: Cytokine profile of CD4 T cell clone stimulated with cognate peptide (intracellular staining)
Format in all cases: cell-based, human
Conditions in all cases: cognate peptide 10 μM, 5 hours
[1] = system: CD4 T cell clone 9C12-DQβ*0202
Protocol: (§1) Lymphocytes were stimulated for 5 hours in the presence of brefeldin A (10 μg/mL) either with peptide alone (10 μM) in an autopresentation assay or with B-EBV or HLA-class II expressing melanoma cells pulsed 2 hours with the cognate peptide, at a ratio 1:2. In some experiments, blocking mAb against HLA-DP (clone B7.21 from Dr Charron, UMR940, Paris), HLA-DQ (clone SPVL3, Beckman Coulter) or HLA-DR (clone L243, BD Biosciences) were added at a concentration of 12.5 μg/ml. Cells were then stained with APC-conjugated anti-CD4 mAb, fixed with 4% paraformaldehyde, labeled with PE-conjugated anti-cytokine mAb and analyzed by flow cytometry.
(§2) We also documented the T helper profile of each T cell clone, by stimulating the CD4 T cell clones with the cognate peptide, and analyzing cytokine production. All the clones expressed Th1 cytokines (TNFα, IFNγ, IL2 and GM-CSF). On the contrary, these clones differ in their expression of Th2 cytokines. Indeed, the two DQ2 restricted T cell clones (9C12 and 4E2) and the DR1 restricted one (5F9) also strongly express two Th2 cytokines (IL4, and IL13), whereas the DR11-restricted T cell clone only weakly expressed IL4 (Table IV). None of the CD4 T cell expresses IL10 or IL5 at a significant level.

[2] = system: CD4 T cell clone 1A5-DRβ1*1101
Protocol: as §1, §2

[3] = system: CD4 T cell clone 5F9-DRβ1*0101
Protocol: as §1, §2

Sequence: SCVGYPDEATSREQFLPSEG (SCVGYPDEATSREQFLPSEC) [MELOE-12-21]
- Cytokine profile: GM-CSF [1]: GM-CSF^high
- Cytokine profile: IFN [1]: IFN^high
- Cytokine profile: IL2 [1]: IL2^high
- Cytokine profile: IL4 [1]: IL4^high
- Cytokine profile: IL5 [1]: IL5^high
- Cytokine profile: IL10 [1]: IL10^neg
- Cytokine profile: IL13 [1]: IL13^high
- Cytokine profile: TNF [1]: TNF^high

Sequence: TSREQFLPSEGAACPPWHPS [MELOE-111-30]
- Cytokine profile: GM-CSF [2]: GM-CSF^high
- Cytokine profile: IFN [2]: IFN^high
- Cytokine profile: IL2 [2]: IL2^high
- Cytokine profile: IL4 [2]: IL4^low
- Cytokine profile: IL5 [2]: IL5^neg
- Cytokine profile: IL10 [2]: IL10^neg
- Cytokine profile: IL13 [2]: IL13^neg
- Cytokine profile: TNF [2]: TNF^high
- Cytokine profile: GM-CSF [3]: GM-CSF^high
- Cytokine profile: IFN [3]: IFN^high
- Cytokine profile: IL2 [3]: IL2^low
- Cytokine profile: IL4 [3]: IL4^high
- Cytokine profile: IL5 [3]: IL5^neg
- Cytokine profile: IL10 [3]: IL10^neg
- Cytokine profile: IL13 [3]: IL13^high
- Cytokine profile: TNF [3]: TNF^high
